Entries after “also recorded” stand apart in the source; their conditions may differ. Like-named read-outs stand apart in the source and are kept apart here.
Columns and labels:
[1] = target: T1, α5β2γ2 subtype GABAAR (Homo sapiens, UniProt P18507+P31644); assay: Positive allosteric modulator activity: potentiation of EC20 GABA current in oocytes; type: cell-based; conditions: read-out: GABA α5 Functional Data (potentiation), @ 100 nM, reported as ranges
T1 construct: expressed in transfected cells
T1 sequence (P31644 32-462): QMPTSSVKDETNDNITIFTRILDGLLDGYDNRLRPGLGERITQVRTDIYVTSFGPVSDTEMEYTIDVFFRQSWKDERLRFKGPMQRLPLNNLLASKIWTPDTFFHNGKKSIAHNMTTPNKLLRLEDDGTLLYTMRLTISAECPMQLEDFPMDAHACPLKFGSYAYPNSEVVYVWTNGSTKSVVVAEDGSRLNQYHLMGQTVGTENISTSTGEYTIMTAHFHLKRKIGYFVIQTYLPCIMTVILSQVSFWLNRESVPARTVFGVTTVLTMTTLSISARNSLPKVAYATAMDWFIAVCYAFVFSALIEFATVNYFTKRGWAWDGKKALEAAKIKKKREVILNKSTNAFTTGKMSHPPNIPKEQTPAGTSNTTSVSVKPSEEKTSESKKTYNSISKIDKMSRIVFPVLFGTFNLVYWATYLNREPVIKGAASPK
T1 sequence (P47870 25-512 partner limits assumed): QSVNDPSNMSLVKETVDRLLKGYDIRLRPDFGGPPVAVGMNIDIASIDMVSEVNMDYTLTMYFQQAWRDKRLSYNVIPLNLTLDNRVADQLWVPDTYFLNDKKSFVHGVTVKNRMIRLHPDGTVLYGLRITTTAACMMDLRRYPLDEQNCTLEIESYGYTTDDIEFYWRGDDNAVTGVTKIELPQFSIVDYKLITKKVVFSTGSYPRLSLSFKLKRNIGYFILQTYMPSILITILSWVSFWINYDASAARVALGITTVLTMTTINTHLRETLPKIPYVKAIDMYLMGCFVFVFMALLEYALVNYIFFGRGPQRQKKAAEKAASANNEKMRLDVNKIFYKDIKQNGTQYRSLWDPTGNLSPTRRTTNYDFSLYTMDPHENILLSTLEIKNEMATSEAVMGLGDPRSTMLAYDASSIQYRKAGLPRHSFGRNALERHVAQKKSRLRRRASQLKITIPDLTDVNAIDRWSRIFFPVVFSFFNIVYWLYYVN
T1 sequence (P18507 40-467 limits assumed): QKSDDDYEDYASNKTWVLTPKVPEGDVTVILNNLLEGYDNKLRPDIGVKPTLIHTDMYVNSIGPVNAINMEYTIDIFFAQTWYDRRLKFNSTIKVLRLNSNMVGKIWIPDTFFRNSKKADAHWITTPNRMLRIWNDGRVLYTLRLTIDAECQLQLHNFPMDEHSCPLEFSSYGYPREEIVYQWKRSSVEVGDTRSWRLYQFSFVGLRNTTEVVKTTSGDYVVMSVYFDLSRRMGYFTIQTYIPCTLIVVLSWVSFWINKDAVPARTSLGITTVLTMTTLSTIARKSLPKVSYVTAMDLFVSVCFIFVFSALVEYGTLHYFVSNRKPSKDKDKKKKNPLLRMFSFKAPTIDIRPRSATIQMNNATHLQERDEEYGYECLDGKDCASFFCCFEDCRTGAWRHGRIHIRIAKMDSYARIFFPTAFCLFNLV
In short: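 Xenopus oocytes injected with 1 ng α5:β2:γ2 cDNA (1:1:10 by weight) and recorded on day 2 by two-electrode voltage clamp under MBS superfusion. Potentiation (%) = Itest/IGABA at EC20 GABA; each oocyte used for one concentration only.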

[2] = target: T2, α5β3γ2 GABAA receptors (Homo sapiens, UniProt P18507+P31644); assay: Binding activity of test compounds on GABAAR: inhibition of [3H]Ro15-1788 binding, membranes of Ltk cells
T2 construct: membranes
T2 sequence (P31644 32-462): T1 sequence (P31644 32-462)
T2 sequence (P28472 26-473 partner): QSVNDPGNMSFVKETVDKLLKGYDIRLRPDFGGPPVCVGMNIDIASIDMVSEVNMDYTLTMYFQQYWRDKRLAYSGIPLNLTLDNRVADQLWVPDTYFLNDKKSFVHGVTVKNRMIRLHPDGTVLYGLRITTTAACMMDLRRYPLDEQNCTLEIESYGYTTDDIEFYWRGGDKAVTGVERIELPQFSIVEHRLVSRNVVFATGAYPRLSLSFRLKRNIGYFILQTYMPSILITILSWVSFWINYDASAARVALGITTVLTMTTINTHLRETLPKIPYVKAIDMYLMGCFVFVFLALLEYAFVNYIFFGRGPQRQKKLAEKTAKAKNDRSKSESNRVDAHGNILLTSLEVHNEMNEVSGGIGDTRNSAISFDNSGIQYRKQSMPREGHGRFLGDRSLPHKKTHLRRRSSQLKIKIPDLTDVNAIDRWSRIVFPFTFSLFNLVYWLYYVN
T2 sequence (P18507 40-467 limits assumed): T1 sequence (P18507 40-467 limits assumed)
Experimental: (A) Binding activity of test compounds on GABAAR
Tissue culture and Membrane Preparation: The binding was performed on Ltk cells stably expressing GABAA receptors: α1β1γ2, α2β3γ2, α3β3γ2 and α5β3γ2 (provided by Merck Co., NJ, USA). Cells were seeded in 100 mm culture plates in DMEM/F12 medium containing 10% scrum and antibiotics in 5% CO2 and allowed to grow for 1-2 days. GABAAR expression was then induced by dexamethasone as follows: 0.5 μM for 1 day for α5 containing and 2 μM for 3 days for α1, α2 and α3 containing GABAARs. After induction, cells were collected by scraping into Dulbecco's Phosphate buffered saline (DPBS, pH 7.4, Invitrogen, Carlsbad, CA, USA) and centrifuged at 150×g for 10 min. The pellet was washed twice by re-suspension and centrifugation. The cell pellets from at least 5 different preps were combined, suspended in the binding assay buffer (50 mM KH2PO4; 1 mM EDTA; 0.2 M KCl, pH 7.4) and membranes prepared by sonication (3-5 times, 30 sec) using Branson Sonifier 150 (G. Heinmann, Germany). Protein content was determined using BCA assay (Bio-Rad Labs, Reinach, Switzerland) with Bovine Serum Albumin (Sigma Aldrich, St. Louis, MO, USA) as the standard. Aliquots were prepared and stored at −20° C. for further use in binding assays.
Ligand Binding: Saturation binding curves were obtained by incubating membranes with increasing concentrations (0.01-8 nM) of [^3H]Rol5-1788 (Flumazepil, 75-85 Ci/mmol, PerkinElmer, MA, USA), with nonspecific binding measured in the presence of 10 μM diazepam.
All binding assays were performed for 1 h at 4° C. in assay buffer. The total assay volume was 0.5 ml containing 0.2 mg/ml protein for α5 and 0.4 mg/ml for α1, α2, and α3 containing GABAAR membranes. Incubations were terminated by filtration through GF/B filters using a 24-Cell Harvestor (Brandel, Gaithersburg, MD, USA) followed by 3 washes with ice-cold assay buffer. […] Next day, radioactivity was obtained using a scintillation counter (Beckman Coulter, Brea, CA, USA). […]

[3] = system: aged-impaired (AI) rats; assay: Radial Arm Maze (RAM) behavioral task, spatial memory retention; type: in vivo, rat; conditions: two-hour delay
Experimental: The effects of methyl 3,5-diphenylpyridazine-4-carboxylate on the in vivo spatial memory retention of aged-impaired (AI) rats were assessed in a Radial Arm Maze (RAM) behavioral task using vehicle control and four different dosage levels of methyl 3,5-diphenylpyridazine-4-carboxylate (0.1 mg/kg, 0.3 mg/kg, 1 mg/kg and 3 mg/kg, ip). RAM behavioral tasks were performed on eight AI rats. All five treatment conditions (vehicle and four dosage levels) were tested on all eight rats.
The RAM apparatus used consisted of eight equidistantly-spaced arms. An elevated maze arm (7 cm width×75 cm length) projected from each facet of an octagonal center platform (30 cm diameter, 51.5 cm height). Clear side walls on the arms were 10 cm high and were angled at 65° to form a trough. A food well (4 cm diameter, 2 cm deep) was located at the distal end of each arm. Froot Loops™ (Kellogg Company) were used as rewards. Blocks constructed of Plexiglas™ (30 cm height×12 cm width) could be positioned to prevent entry to any arm. Numerous extra maze cues surrounding the apparatus were also provided.
The AI rats were initially subjected to a pre-training test (Chappell et al. Neuropharmacology 37: 481-487, 1998). The pre-training test consisted of a habituation phase (4 days), a training phase on the standard win-shift task (18 days) and another training phase (14 days) in which a brief delay was imposed between presentation of a subset of arms designated by the experimenter (e.g., 5 arms available and 3 arms blocked) and completion of the eight-arm win-shift task (i.e., with all eight arms available).
In the habituation phase, rats were familiarized to the maze for an 8-minute session on four consecutive days. In each of these sessions, food rewards were scattered on the RAM, initially on the center platform and arms and then progressively confined to the arms. After this habituation phase, a standard training protocol was used, in which a food pellet was located at the end of each arm. Rats received one trial each day for 18 days. Each daily trial terminated when all eight food pellets had been obtained or when either 16 choices were made or 15 minutes had elapsed. After completion of this training phase, a second training phase was carried out in which the memory demand was increased by imposing a brief delay during the trial. At the beginning of each trial, three arms of the eight-arm maze were blocked. Rats were allowed to obtain food on the five arms to which access was permitted during this initial “information phase” of the trial. Rats were then removed from the maze for 60 seconds, during which time the barriers on the maze were removed, thus allowing access to all eight arms. […]

[4] = target: T3, α5-containing GABAA R (Homo sapiens, UniProt P18507+P31644); conditions: EC20; cited from earlier work
T3 sequence (P31644 32-462): T1 sequence (P31644 32-462)
T3 sequence (P28472 26-473 partner): T2 sequence (P28472 26-473 partner)
T3 sequence (P18507 40-467 limits assumed): T1 sequence (P18507 40-467 limits assumed)

[5] = type: in vivo, rat; conditions: for Hippocampus exposure / Plasma exposure / Young Hippocampus exposure / Young Plasma exposure: young Long Evans rats; for Aged Hippocampus exposure / Aged Plasma exposure: aged Long Evans rats
Experimental: (§1) Food and water were available ad libitum.
For plasma exposures, blood samples were centrifuged at 14000 rpm for 16 minutes. After centrifuging, 50 ul of supernatant (plasma) from each sample was added to 200 μl of acetonitrile plus 0.1% formic acid. […] Samples were sonicated for 5 minutes in an ultrasonic water bath, followed by centrifugation for 30 minutes, at 16000 RPM. 100 ul of supernatant was removed from each sample vial and placed in a new glass auto sample vial, followed by the addition of 300 μl of sterile water (pH 6.5).
Additional studies were conducted in aged Long-Evans rats in order to determine the exposures at the behaviorally relevant doses in the cognition studies. Exposure in young Long-Evans rats was also determined to bridge with the receptor occupancy studies that were conducted in young Long-Evans rats. Exposures in young and aged Long-Evans rats were relatively similar (Table 4, FIG. 4).

[6] = target: T4, GABAA α5 receptor (Rattus norvegicus, UniProt P18508+P19969); assay: GABAA α5 receptor occupancy with Ro 15-4513 tracer (hippocampus vs cerebellum); type: in vivo; conditions: for % RO (L-655,708 Method): young Long Evans rats
T4 construct: from tissue; host or cells: rat brain in vivo; hippocampus versus cerebellum
From the text: as §1

T4 sequence (P19969 32-464 limits assumed): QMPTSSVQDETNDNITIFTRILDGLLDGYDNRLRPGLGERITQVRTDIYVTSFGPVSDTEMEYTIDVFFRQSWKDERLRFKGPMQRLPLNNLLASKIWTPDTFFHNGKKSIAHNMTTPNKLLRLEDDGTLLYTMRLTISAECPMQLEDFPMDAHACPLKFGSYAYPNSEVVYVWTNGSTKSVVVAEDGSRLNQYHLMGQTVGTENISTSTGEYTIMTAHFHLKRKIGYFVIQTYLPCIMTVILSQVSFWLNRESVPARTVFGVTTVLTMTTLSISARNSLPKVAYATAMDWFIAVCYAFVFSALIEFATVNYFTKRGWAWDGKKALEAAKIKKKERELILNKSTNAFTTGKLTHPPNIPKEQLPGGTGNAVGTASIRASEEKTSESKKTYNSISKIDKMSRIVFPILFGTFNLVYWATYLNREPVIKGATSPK
T4 sequence (P18508 39-466): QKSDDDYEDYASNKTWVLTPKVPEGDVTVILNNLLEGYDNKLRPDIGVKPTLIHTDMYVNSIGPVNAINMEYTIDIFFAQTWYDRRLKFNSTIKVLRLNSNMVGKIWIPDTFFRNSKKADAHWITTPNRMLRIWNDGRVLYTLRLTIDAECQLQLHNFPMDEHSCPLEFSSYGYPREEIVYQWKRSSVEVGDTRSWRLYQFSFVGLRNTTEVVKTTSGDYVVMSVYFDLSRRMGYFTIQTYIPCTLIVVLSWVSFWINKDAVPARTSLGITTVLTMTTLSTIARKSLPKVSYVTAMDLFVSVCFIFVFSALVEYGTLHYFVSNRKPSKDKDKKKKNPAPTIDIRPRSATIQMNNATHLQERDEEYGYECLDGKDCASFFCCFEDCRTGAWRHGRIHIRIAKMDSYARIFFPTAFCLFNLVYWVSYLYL

COC1C=C2C(=CC1)n1cnc(-c3noc(C(C)C)n3)c1Cn1c(COc3ccccc3Cl)nnc12 (stereo not shown) [Compound 175]
activation at 0.1 µM [1]: 20 to 50%
Ki [2]: < 100 nM

C#Cc1ccc2c(c1)-n1nnc(COC)c1Cc1c(C3=N[C@@H](C(C)C)CO3)ncn1-2 [Compound 384]
Ki [2]: 100 to 1000 nM

COCc1nnc2n1Cc1c(-c3ncco3)ncn1-c1cc(Cl)ccc1-2 [Compound 458]
Ki ([2]; reported as ranges): > 1000 nM

COC(=O)c1c(-c2ccccc2)cnnc1-c1ccccc1 [methyl 3,5-diphenylpyridazine-4-carboxylate]
average no. of errors ± SEM, retention test ([3]; 3 mg/kg ip): 1.31±0.40
memory performance relative to vehicle control ([3]; 3 mg/kg, t(7)=4.233, p=0.004): significantly improved memory performance
α5 in vitro efficacy [4]: +27
Hippocampus exposure ([5]; 0.01 mg/kg i.v.): BQL
Plasma exposure ([5]; 0.01 mg/kg i.v.): BQL
Plasma exposure ([5]; 0.1 mg/kg i.v.): BQL
Hippocampus exposure ([5]; 1 mg/kg i.v.): 180.0 ng/g
Aged Hippocampus exposure ([5]; 1 mg/kg ip): 38.8 ng/g
Aged Plasma exposure ([5]; 1 mg/kg ip): 45.2 ng/mL
Young Hippocampus exposure ([5]; 1 mg/kg ip): 25.9 ng/g
Young Plasma exposure ([5]; 1 mg/kg ip): 20.0 ng/mL
Aged Hippocampus exposure ([5]; 3 mg/kg ip): 177.5 ng/g
Aged Plasma exposure ([5]; 3 mg/kg ip): 196 ng/mL
Young Hippocampus exposure ([5]; 3 mg/kg ip): 129.1 ng/g
Young Plasma exposure ([5]; 3 mg/kg ip): 132.9 ng/mL
brain/plasma ratios ([5]; Long Evans, rat, in vivo): > 1
increase in hippocampal exposure ([5]; dose from 0.1 to 1 mg/kg, i.v.): 12 fold
increase in hippocampal exposure ([5]; dose from 1 to 10 mg/kg, i.v.): ~5 fold
increase in plasma exposure ([5]; dose from 1 to 10 mg/kg, i.v.): 12 fold
% RO (L-655,708 Method) ([6]; 0.01 mg/kg i.v.): 19.2%
% RO (L-655,708 Method) ([6]; 0.1 mg/kg i.v.): 16.4%
% RO (L-655,708 Method) ([6]; 1 mg/kg i.v.): 38.5%
effect on Ro 15-4513 binding in hippocampus ([6]; 0.01-10 mg/kg, i.v.): dose-dependently reduced; also recorded: blocked
effect on Ro 15-4513 levels (binding) in cerebellum ([6]; 0.01-10 mg/kg, i.v.): without affecting; also recorded: did not affect
GABAA α5 receptors occupied ([6]; at exposures behaviorally active in aged-impaired rats (FIG. 4)): about 32%
receptor occupancy at 10 mg/kg ([6]; rat, iv, 10 mg/kg): > 90%
ED50 ([6]; rat, iv, ratio method): 1.8 mg/kg
